The record followed here is ChEMBL document CHEMBL5150008, “Fragment-Guided Discovery of Pyrazole Carboxylic Acid Inhibitors of the Kelch-like ECH-Associated Protein 1: Nuclear Factor Erythroid 2 Related Factor 2 (KEAP1:NRF2) Protein-Protein Interaction” (J Med Chem, 2021).

Data set [1] has as its target Keap1/Nrf2 (Homo sapiens, UniProt Q14145). The data set is described as follows: (§1) Inhibition of 5'-TAMRA tagged NRF2 (unknown origin)/human recombinant N-terminal Avi tagged KEAP-1 (321 to 609 residues) expressed in Baculovirus system infected in Sf9 cells protein-protein interaction by fluorescence polarisation assay. (Polarisation of emitted light reports the rotation of a fluorescent probe.)

A short description of data set [2]: Permeability in artificial phospholipid membrane by AMPA based HPLC/UV analysis. It is filed as ADME, cell membranes. As to conditions: not told; read-out: permeability.
In data set [3] the target is T1, Keap1/Nrf2 (Homo sapiens, UniProt Q16236+Q14145). The data set is described as follows: Inhibition of 5'-TAMRA tagged NRF2 (unknown origin)/human recombinant N-terminal Avi tagged KEAP-1 (321 to 609 residues) expressed in Baculovirus system infected in Sf9 cells protein-protein interaction at 0.015 uM by fluorescence polarisation assay relative to control.
Target sequence in this assay (Q14145 whole entry, looked up, the tested form may be a part): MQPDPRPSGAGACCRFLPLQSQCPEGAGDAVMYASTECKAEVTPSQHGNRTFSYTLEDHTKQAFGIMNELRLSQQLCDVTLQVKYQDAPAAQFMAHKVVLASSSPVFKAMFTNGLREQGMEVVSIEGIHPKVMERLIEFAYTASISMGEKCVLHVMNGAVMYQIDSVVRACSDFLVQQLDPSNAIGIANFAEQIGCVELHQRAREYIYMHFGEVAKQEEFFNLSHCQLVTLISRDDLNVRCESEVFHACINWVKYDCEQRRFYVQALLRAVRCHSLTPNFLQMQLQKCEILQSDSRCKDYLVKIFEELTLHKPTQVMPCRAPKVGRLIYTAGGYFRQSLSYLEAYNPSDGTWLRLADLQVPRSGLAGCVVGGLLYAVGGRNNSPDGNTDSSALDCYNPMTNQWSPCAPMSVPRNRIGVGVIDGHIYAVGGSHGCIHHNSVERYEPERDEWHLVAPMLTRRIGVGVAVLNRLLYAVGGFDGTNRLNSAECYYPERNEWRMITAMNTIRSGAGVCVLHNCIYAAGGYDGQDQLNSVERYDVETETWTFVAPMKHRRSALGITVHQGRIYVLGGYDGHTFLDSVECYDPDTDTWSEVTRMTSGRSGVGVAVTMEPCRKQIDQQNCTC
Target sequence in this assay (Q16236 whole entry, looked up, the tested form may be a part): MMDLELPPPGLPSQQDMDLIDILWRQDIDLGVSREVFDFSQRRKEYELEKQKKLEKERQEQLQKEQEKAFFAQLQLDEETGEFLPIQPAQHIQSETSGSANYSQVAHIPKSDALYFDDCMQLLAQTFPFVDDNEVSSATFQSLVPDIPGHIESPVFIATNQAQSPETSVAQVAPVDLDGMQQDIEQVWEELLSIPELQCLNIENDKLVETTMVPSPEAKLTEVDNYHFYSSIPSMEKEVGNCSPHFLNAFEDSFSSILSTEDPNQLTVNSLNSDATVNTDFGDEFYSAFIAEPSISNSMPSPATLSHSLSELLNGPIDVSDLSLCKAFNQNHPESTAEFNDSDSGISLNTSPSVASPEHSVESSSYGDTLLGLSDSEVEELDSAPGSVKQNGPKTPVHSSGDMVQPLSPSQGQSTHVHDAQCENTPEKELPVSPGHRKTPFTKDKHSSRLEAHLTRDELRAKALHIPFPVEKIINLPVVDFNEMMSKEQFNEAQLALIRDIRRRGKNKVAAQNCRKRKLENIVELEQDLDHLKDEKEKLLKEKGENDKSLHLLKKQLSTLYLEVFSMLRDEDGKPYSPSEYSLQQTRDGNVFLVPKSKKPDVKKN
A short description of data set [4]: Lipophilicity, logD of compound at pH 2 to 10.5 by reversed-phase HPLC. It is filed as physicochemical.
For data set [5], the target named is T1, Keap1/Nrf2. Put plainly: Inhibition of 5'-TAMRA tagged NRF2 (unknown origin)/human recombinant N-terminal Avi tagged KEAP-1 (321 to 609 residues) expressed in Baculovirus system infected in Sf9 cells protein-protein interaction at 0.1 uM by fluorescence polarisation assay relative to control.
Target sequence in this assay (Q14145 whole entry, looked up, the tested form may be a part): as the sequence (Q14145 whole entry, looked up, the tested form may be a part) above
Target sequence in this assay (Q16236 whole entry, looked up, the tested form may be a part): as the sequence (Q16236 whole entry, looked up, the tested form may be a part) above
In data set [6] the target is T1, Keap1/Nrf2. Put plainly: Inhibition of 5'-TAMRA tagged NRF2 (unknown origin)/human recombinant N-terminal Avi tagged KEAP-1 (321 to 609 residues) expressed in Baculovirus system infected in Sf9 cells protein-protein interaction at 0.03 uM by fluorescence polarisation assay relative to control.
Data set [7] concerns the target T1, Keap1/Nrf2. Described as §1.
Target sequence in this assay (Q14145 whole entry, looked up, the tested form may be a part): as the sequence (Q14145 whole entry, looked up, the tested form may be a part) above
Target sequence in this assay (Q16236 whole entry, looked up, the tested form may be a part): as the sequence (Q16236 whole entry, looked up, the tested form may be a part) above
Data set [8] addresses T1, Keap1/Nrf2. Put plainly: Inhibition of 5'-TAMRA tagged NRF2 (unknown origin)/human recombinant N-terminal Avi tagged KEAP-1 (321 to 609 residues) expressed in Baculovirus system infected in Sf9 cells protein-protein interaction at 0.05 uM by fluorescence polarisation assay relative to control.
Target sequence in this assay (Q14145 whole entry, looked up, the tested form may be a part): as the sequence (Q14145 whole entry, looked up, the tested form may be a part) above
Target sequence in this assay (Q16236 whole entry, looked up, the tested form may be a part): as the sequence (Q16236 whole entry, looked up, the tested form may be a part) above

Keap1/Nrf2 (Homo sapiens, UniProt Q14145), sequence (Q16236 whole entry, the tested form may be a part): as the sequence (Q16236 whole entry, looked up, the tested form may be a part) above
Keap1/Nrf2 (Homo sapiens, UniProt Q14145), sequence (Q14145 whole entry, the tested form may be a part): as the sequence (Q14145 whole entry, looked up, the tested form may be a part) above

For `CN(C)C(=O)c1cccc(-c2cccc(-n3ncc(C(=O)O)c3-c3cccnc3)c2)c1`, at Keap1/Nrf2 [1] (read-out: IC50), the IC50 turned out to be 2 µM.
On to `CCC[C@@H]1CCCCN1C(=O)c1cccc(-c2cccc(-n3ncc(C(=O)O)c3C3CC3)c2)c1F`, for which, in data set [2], the Papp was 2.7 ×10⁻⁶ cm/s. For the same molecule, on Keap1/Nrf2 [3], the inhibition (in general, the change of the read-out against control, counted positive when it falls) was found to be 52%. In addition, the chromatographic logD – broadly, a lipophilicity value derived from retention on a column – in data set [4] was 3.5.
With `CN(C)C(=O)c1cncc(-c2cccc(-n3ncc(C(=O)O)c3C(F)(F)F)c2)c1`, on Keap1/Nrf2 [1] (read-out: IC50), the IC50 worked out at 3.7 µM.
Consider `CN(CC1CC1)C(=O)c1cccc(-c2cccc(-n3ncc(C(=O)O)c3C3CC3)c2)c1F`, for which the Papp in data set [2] was 0.3 ×10⁻⁶ cm/s. The chromatographic logD in data set [4] was determined as 2.2. The IC50 at Keap1/Nrf2 [1] (read-out: pIC50 (converted)) was under 1 µM. Also, the inhibition at Keap1/Nrf2 [5] came to 50%.
As to `O=C(O)c1cnn(-c2ccccc2)c1C(F)(F)F`, the IC50 on Keap1/Nrf2 [1] (read-out: IC50) is over 300 µM.
Same read-out and setting: the value for `CC(C)Oc1cccc(-c2cccc(-n3ncc(C(=O)O)c3C(F)(F)F)n2)c1` was 8.5 µM; that for `CN(C)C(=O)c1cccc(-c2cccc(-n3ncc(C(=O)O)c3C(F)(F)F)c2)c1` was 0.48 µM.
On the same count and under the same terms, the value for `CC(=O)N1CCC(c2c(C(=O)O)cnn2-c2cccc(-c3cccc(C(=O)N(C)C)c3)c2)CC1` was 3.5 µM.
Consider `CCCC1CCCCN1C(=O)c1cccc(-c2cccc(-n3ncc(C(=O)O)c3C3CC3c3ccccn3)c2)c1` (mixture of isomers), for which the Papp in data set [2] was found to be 4 ×10⁻⁶ cm/s. In data set [4], this molecule had a chromatographic logD of 3.1. In addition, the inhibition at Keap1/Nrf2 [6] worked out at 42%.
In the case of `O=C(O)c1cnn(-c2cccc(-c3cccc(C(=O)N4CCCCC4)c3F)c2)c1C1CC1`, in data set [2], the Papp is under 0.3 ×10⁻⁶ cm/s. Also, the chromatographic logD in data set [4] worked out at 2.3. Besides, the IC50 on Keap1/Nrf2 [1] (read-out: IC50) is 0.12 µM; at Keap1/Nrf2 [1] (read-out: pIC50 (converted)), under 1 µM.
As to `CCCCC1CCCN1C(=O)C1CCCC(c2cccc(-n3ncc(C(=O)O)c3C3CC3)c2)C1` (mixture of isomers), the Papp in data set [2] was determined as 2.7 ×10⁻⁶ cm/s. The chromatographic logD in data set [4] turned out to be 4.4. Further, the inhibition at Keap1/Nrf2 [6] was 64%.
Turning to `CN(C)C(=O)[C@H]1CCC[C@@H](c2cccc(-n3ncc(C(=O)O)c3C3CC3)c2)C1` (racemic), in data set [2], the Papp was under 0.3 ×10⁻⁶ cm/s. For the same molecule, the chromatographic logD in data set [4] is 1.7. The figures for the IC50 on Keap1/Nrf2 [1] (read-out: IC50) and on Keap1/Nrf2 [1] (read-out: pIC50 (converted)) were 0.24 µM and under 1 µM, respectively.
`CN(C)C(=O)c1cccc(-c2cccc(-n3ncc(C(=O)O)c3C3CCCCC3)c2)c1`: on Keap1/Nrf2 [1] (read-out: IC50), the IC50 was 1.8 µM.
For the molecule `CN(C)C(=O)c1ccnc(-c2cccc(-n3ncc(C(=O)O)c3C(F)(F)F)c2)c1`, on Keap1/Nrf2 [1] (read-out: IC50), the IC50 was found to be 7.5 µM.
As for `CCCC1CCCCN1C(=O)C1CCCC(c2cccc(-n3ncc(C(=O)O)c3C3CC3)c2)C1` (mixture of isomers), the Papp in data set [2] is 1.1 ×10⁻⁶ cm/s. The molecule further returned a chromatographic logD in data set [4] of 4.1. For the same molecule, on Keap1/Nrf2 [1] (read-out: IC50), the IC50 is 0.23 µM.
Turning to `CCC[C@@H]1CCCCN1C(=O)c1cccc(-c2cccc(-n3ncc(C(=O)O)c3[C@@H]3C[C@H]3c3cn(C)nn3)c2)c1`, the Papp in data set [2] was 1.7 ×10⁻⁶ cm/s. This molecule yielded a chromatographic logD in data set [4] of 3. The IC50 at Keap1/Nrf2 [7] was 0.56 µM.
For the molecule `CCC[C@H]1CCCCN1C(=O)c1cccc(-c2cccc(-n3ncc(C(=O)O)c3C3CC3)c2)c1F`, in data set [2], the Papp amounted to 6.3 ×10⁻⁶ cm/s. In data set [4], this molecule came in with a chromatographic logD of 3.5. In addition, the IC50 on Keap1/Nrf2 [1] (read-out: IC50) came out at 0.06 µM.
In the case of `CN(C)C(=O)c1cccc(-c2cccc(-n3ncc(C(=O)O)c3C3CC3)c2)c1`, in data set [2], the Papp was under 0.3 ×10⁻⁶ cm/s. In data set [4], this molecule came in with a chromatographic logD of 1.4. For the same molecule, the IC50 on Keap1/Nrf2 [1] (read-out: IC50) is 0.37 µM; at Keap1/Nrf2 [1] (read-out: pIC50 (converted)), under 1 µM.
`O=C(O)c1cnn(-c2cccc(-c3cccc(C(=O)N4CCCC5(CCCC5)C4)c3F)c2)c1C1CC1`: the Papp in data set [2] is 1.2 ×10⁻⁶ cm/s. Further, the inhibition on Keap1/Nrf2 [3] was 50%. This molecule registered a chromatographic logD in data set [4] of 3.7.
Consider `O=C(O)c1cnn(-c2cccc(NS(=O)(=O)c3ccccc3)c2)c1C(F)(F)F`, for which, at Keap1/Nrf2 [1] (read-out: IC50), the IC50 is 4.6 µM.
With `CN(C)C(=O)c1cccc(-c2cccc(-n3ncc(C(=O)O)c3C(C)(C)C)n2)c1`, the IC50 on Keap1/Nrf2 [1] (read-out: IC50) was determined as 10 µM.
`O=C(O)c1cnn(-c2ccccn2)c1C(F)(F)F`: the IC50 at Keap1/Nrf2 [1] (read-out: IC50) is over 1000 µM.
Turning to `CN(C)C(=O)c1cccc(-c2cccc(-n3ncc(C(=O)O)c3C3CC3)c2)c1F`, the Papp in data set [2] was under 0.3 ×10⁻⁶ cm/s. Besides, the chromatographic logD in data set [4] came to 1.3. In addition, the IC50 at Keap1/Nrf2 [1] (read-out: IC50) is over 10 µM; on Keap1/Nrf2 [1] (read-out: pIC50 (converted)) it was under 1 µM.
Take `CN(C)C(=O)c1cccc(-c2cccc(-n3ncc(C(=O)O)c3C(F)(F)F)n2)c1`: the IC50 at Keap1/Nrf2 [1] (read-out: IC50) came to 1 µM.
Consider `CCCC1CCCCN1C(=O)c1cccc(-c2cccc(-n3ncc(C(=O)O)c3C3CC3c3cn(C)nn3)c2)c1` (mixture of isomers), for which, in data set [2], the Papp was determined as 3.7 ×10⁻⁶ cm/s. For the same molecule, at Keap1/Nrf2 [3], the inhibition worked out at 84%. Also, the chromatographic logD in data set [4] was determined as 2.9.
As to `CCCC1COCCN1C(=O)c1cccc(-c2cccc(-n3ncc(C(=O)O)c3C3CC3)c2)c1F` (stereo not given), the Papp in data set [2] was determined as 1.1 ×10⁻⁶ cm/s. For the same molecule, the inhibition is 72% on Keap1/Nrf2 [8] and 60% at Keap1/Nrf2 [6]. In addition, the chromatographic logD in data set [4] was determined as 2.5.
Consider `CCCC1CCCCN1C(=O)c1cccc(-c2cccc(-n3ncc(C(=O)O)c3C3CC3c3cccnn3)c2)c1` (mixture of isomers), for which the Papp in data set [2] is 1.7 ×10⁻⁶ cm/s. In addition, the inhibition on Keap1/Nrf2 [3] turned out to be 50%. Further, in data set [4], the chromatographic logD worked out at 2.9.
For `O=C(O)c1cnn(-c2cccc([C@@H]3CCC[C@H](C(=O)N4CCCCC4)C3)c2)c1C1CC1` (racemic), the Papp in data set [2] was under 0.3 ×10⁻⁶ cm/s. The same molecule registered a chromatographic logD in data set [4] of 2.7. In addition, the IC50 on Keap1/Nrf2 [1] (read-out: IC50) is 0.3 µM.
On to `CN(C)C(=O)c1cccc(-c2cccc(-n3ncc(C(=O)O)c3C3CC3c3cn(C)nn3)c2)c1` (racemic), for which the Papp in data set [2] was under 0.3 ×10⁻⁶ cm/s. Besides, the chromatographic logD in data set [4] came out at 0.8. Further, the IC50 on Keap1/Nrf2 [1] (read-out: IC50) is 0.041 µM; on Keap1/Nrf2 [1] (read-out: pIC50 (converted)), under 1 µM. Moreover, the inhibition on Keap1/Nrf2 [6] stood at 53%.
Turning to `CCCC1CCCCN1C(=O)c1cccc(-c2cccc(-n3ncc(C(=O)O)c3C3CC3c3cccnc3)c2)c1` (mixture of isomers), the Papp in data set [2] worked out at 13 ×10⁻⁶ cm/s. Besides, the chromatographic logD in data set [4] worked out at 3.9. The IC50 on Keap1/Nrf2 [1] (read-out: IC50) came to 0.221 µM.
Consider `O=C(O)c1cnn(-c2cccc(-c3cccc(CNS(=O)(=O)c4ccccc4)c3)c2)c1C(F)(F)F`, for which, on Keap1/Nrf2 [1] (read-out: IC50), the IC50 is 45 µM.
For the molecule `CCC[C@@H]1CCCCN1C(=O)c1cccc(-c2cccc(-n3ncc(C(=O)O)c3[C@H]3C[C@@H]3c3cn(C)nn3)c2)c1`, the Papp in data set [2] came to 1.6 ×10⁻⁶ cm/s. The inhibition on Keap1/Nrf2 [3] was 98%. In data set [4], this molecule displayed a chromatographic logD of 3.
As for `O=C(O)c1cnn(-c2cccc(-c3cccc(C(=O)N(CC4CC4)CC4CC4)c3F)c2)c1C1CC1`, in data set [2], the Papp worked out at 1.6 ×10⁻⁶ cm/s. Moreover, the chromatographic logD in data set [4] stood at 3.5. For the same molecule, the inhibition at Keap1/Nrf2 [6] turned out to be 46%.
Regarding `CN(C)C(=O)c1cccc(-c2cccc(-n3ncc(C(=O)O)c3C3CCCC3)c2)c1`, the IC50 at Keap1/Nrf2 [1] (read-out: IC50) stood at 1 µM.
For the molecule `CCCC[C@@H]1CCCN1C(=O)[C@H]1CCC[C@@H](c2cccc(-n3ncc(C(=O)O)c3C3CC3)c2)C1`, the Papp in data set [2] is 1.6 ×10⁻⁶ cm/s. In addition, the inhibition at Keap1/Nrf2 [3] came out at 81%. This molecule also displayed a chromatographic logD in data set [4] of 4.3.
